Results on 20 compounds are retold here after ChEMBL document CHEMBL1128559, “Inhibition of the oncogene product p185erbB-2 in vitro and in vivo by geldanamycin and dihydrogeldanamycin derivatives” (J Med Chem, 1995).

A value given as a limit tells only on which side of the number the result lay.

The assay concerns SK-BR-3. The assay can be described thus: Inhibition of oncogene product p185 erbB-2 from human breast cancer cells(SK-BR-3 cells).
The compound `CO[C@H]1C[C@H](C)CC2=C(NCCC(=O)O)C(=O)C=C(NC(=O)/C(C)=C/CC[C@H](OC)[C@@H](OC(N)=O)/C(C)=C/[C@H](C)[C@H]1O)C2=O` yielded a half-maximal inhibitory concentration (IC50) greater than 3200 nM.
As for `CO[C@H]1/C=C\C=C(/C)C(=O)NC2=CC3=NCCCNC3=C(C[C@@H](C)C[C@H](OC)[C@H](O)[C@@H](C)/C=C(\C)[C@@H]1OC(N)=O)C2=O`, the figure is 260 nM; as for `CO[C@H]1C[C@H](C)CC2=C(N3CC(N)C3)C(=O)C=C(NC(=O)/C(C)=C/CC[C@H](OC)[C@@H](OC(N)=O)/C(C)=C/[C@H](C)[C@H]1O)C2=O`, 66 nM.
Then `COC1c2cc(O)cc(c2O)NC(=O)/C(C)=C/C=C\[C@H](OC)[C@@H](OC(N)=O)/C(C)=C/[C@H](C)[C@@H](O)[C@@H](OC)C[C@@H]1C` (stereo not given in full), with 1100 nM.
Then `CO[C@H]1/C=C\C=C(/C)C(=O)NC2=CC(=O)C(NCCCN(C)C)=C(C[C@@H](C)C[C@H](OC)[C@H](O)[C@@H](C)/C=C(\C)[C@@H]1OC(N)=O)C2=O`, with 140 nM; and `CO[C@H]1/C=C\C=C(/C)C(=O)NC2=CC(=O)C(NCCCn3ccnc3)=C(C[C@@H](C)C[C@H](OC)[C@H](O)[C@@H](C)/C=C(\C)[C@@H]1OC(N)=O)C2=O`, with 920 nM; and `CNC1=C2C[C@@H](C)C[C@H](OC)[C@H](O)[C@@H](C)/C=C(\C)[C@H](OC(N)=O)[C@@H](OC)/C=C\C=C(/C)C(=O)NC(=CC1=O)C2=O`, with 89 nM.
`CO[C@H]1/C=C\C=C(/C)C(=O)NC2=CC(=O)C(NCCNC(C)=O)=C(C[C@@H](C)C[C@H](OC)[C@H](O)[C@@H](C)/C=C(\C)[C@@H]1OC(N)=O)C2=O`: the concentration for half-maximal inhibition (IC50) is 1270 nM.
Then `CO[C@H]1/C=C\C=C(/C)C(=O)NC2=CC(=O)C(NCCc3ccco3)=C(C[C@@H](C)C[C@H](OC)[C@H](O)[C@@H](C)/C=C(\C)[C@@H]1OC(N)=O)C2=O`, with 320 nM; and `COCCNC1=C2C[C@@H](C)C[C@H](OC)[C@H](O)[C@@H](C)/C=C(\C)[C@H](OC(N)=O)[C@@H](OC)/C=C\C=C(/C)C(=O)NC(=CC1=O)C2=O`, with 66 nM.
Then `CO[C@H]1/C=C\C=C(/C)C(=O)NC2=CC(=O)C(NCC(O)CO)=C(C[C@@H](C)C[C@H](OC)[C@H](O)[C@@H](C)/C=C(\C)[C@@H]1OC(N)=O)C2=O` (stereo not given in full), with 970 nM; and `CO[C@H]1/C=C\C=C(/C)C(=O)NC2=CC(=O)C(NCCS)=C(C[C@@H](C)C[C@H](OC)[C@H](O)[C@@H](C)/C=C(\C)[C@@H]1OC(N)=O)C2=O`, with 170 nM; and `CO[C@H]1C[C@H](C)CC2=C(N3CC(CO)C3)C(=O)C=C(NC(=O)/C(C)=C/CC[C@H](OC)[C@@H](OC(N)=O)/C(C)=C/[C@H](C)[C@H]1O)C2=O`, with 1300 nM.
As for `COc1c(O)cc2c(O)c1C[C@@H](C)C[C@H](OC)[C@H](O)[C@@H](C)/C=C(\C)[C@H](OC(N)=O)[C@@H](OC)/C=C\C=C(/C)C(=O)N2`, the figure is 100 nM; as for `COC1=C2C[C@@H](C)C[C@H](OC)[C@H](O)[C@@H](C)/C=C(\C)[C@H](OC(N)=O)[C@@H](OC)/C=C\C=C(/C)C(=O)NC(=C(N3C=CC=CC=C3)C1=O)C2=O`, 1500 nM.
With `CO[C@H]1C[C@H](C)CC2=C(NCCSC)C(=O)C=C(NC(=O)/C(C)=C/CC[C@H](OC)[C@@H](OC(N)=O)/C(C)=C/[C@H](C)[C@H]1O)C2=O`, the half-maximal inhibitory concentration (IC50) was 140 nM.
Then `CO[C@H]1/C=C\C=C(/C)C(=O)NC2=CC(=O)C(NCc3ccccc3)=C(C[C@@H](C)C[C@H](OC)[C@H](O)[C@@H](C)/C=C(\C)[C@@H]1OC(N)=O)C2=O`, with 790 nM; and `CO[C@H]1/C=C\C=C(/C)C(=O)NC2=C(NCCCN(C)C)C(=O)C(NCCCN(C)C)=C(C[C@@H](C)C[C@H](OC)[C@H](O)[C@@H](C)/C=C(\C)[C@@H]1OC(N)=O)C2=O`, with greater than 4100 nM.
As for `CO[C@H]1/C=C\C=C(/C)C(=O)NC2=CC(=O)C(O)=C(C[C@@H](C)C[C@H](OC)[C@H](O)[C@@H](C)/C=C(\C)[C@@H]1OC(N)=O)C2=O`, the figure is greater than 3700 nM; as for `CO[C@H]1/C=C\C=C(/C)C(=O)NC2=CC(=O)C(NC3CN4CCC3CC4)=C(C[C@@H](C)C[C@H](OC)[C@H](O)[C@@H](C)/C=C(\C)[C@@H]1OC(N)=O)C2=O` (stereo not given in full), 1370 nM.

For orientation: IC50 means the concentration needed to halve the response being measured.
